Laboratory results reported in the NIST ThermoML archive (doi:10.1021/je5010214).
± gives the expanded uncertainty stated by the source.

Conditions: Liquid, Vibrating tube method

CC(C)CO [2-methyl-1-propanol]
Conditions | mass density [kg/m3]
283.15 K, 89.4 kPa | 809.726 ± 0.81
283.15 K, 478.2 kPa | 810.123 ± 0.81
283.15 K, 489.9 kPa | 810.142 ± 0.81
283.15 K, 930.2 kPa | 810.437 ± 0.81
283.15 K, 1027.3 kPa | 810.557 ± 0.81
283.15 K, 2172.1 kPa | 811.348 ± 0.81
283.15 K, 2992.9 kPa | 811.865 ± 0.81
283.15 K, 4993.8 kPa | 813.245 ± 0.81
283.15 K, 6906.9 kPa | 814.669 ± 0.81
283.15 K, 8995.7 kPa | 816.167 ± 0.81
283.15 K, 10003 kPa | 816.885 ± 0.82
283.15 K, 12183 kPa | 818.287 ± 0.82
283.15 K, 14910 kPa | 820.439 ± 0.82
283.15 K, 17915 kPa | 822.056 ± 0.83
283.15 K, 20110 kPa | 823.875 ± 0.83
283.15 K, 22168 kPa | 825.177 ± 0.83
283.15 K, 24886 kPa | 826.625 ± 0.84
283.15 K, 27713 kPa | 828.29 ± 0.84
283.15 K, 30148 kPa | 829.717 ± 0.85
283.15 K, 32117 kPa | 830.745 ± 0.85
283.15 K, 33086 kPa | 831.522 ± 0.85
283.15 K, 33288 kPa | 831.507 ± 0.85
283.15 K, 34077 kPa | 832.073 ± 0.85
283.15 K, 35107 kPa | 832.469 ± 0.85
283.15 K, 38030 kPa | 834.322 ± 0.86
283.15 K, 44591 kPa | 837.752 ± 0.87
283.15 K, 54994 kPa | 843.308 ± 0.89
283.15 K, 57756 kPa | 844.723 ± 0.9
283.15 K, 59886 kPa | 845.575 ± 0.9
283.15 K, 61822 kPa | 846.524 ± 0.91
283.15 K, 64894 kPa | 848.158 ± 0.91
283.16 K, 289.9 kPa | 810.056 ± 0.81
283.16 K, 39967 kPa | 835.34 ± 0.86
283.16 K, 41406 kPa | 835.909 ± 0.87
283.16 K, 48034 kPa | 839.7 ± 0.88
283.16 K, 49830 kPa | 840.462 ± 0.88
283.16 K, 51952 kPa | 841.796 ± 0.89
283.16 K, 66072 kPa | 848.566 ± 0.91
288.15 K, 85.3 kPa | 806.159 ± 0.81
288.15 K, 351.1 kPa | 806.381 ± 0.81
288.15 K, 718.6 kPa | 806.519 ± 0.81
288.15 K, 928.3 kPa | 806.632 ± 0.81
288.15 K, 1132.3 kPa | 807.006 ± 0.81
288.15 K, 1931.6 kPa | 807.42 ± 0.81
288.15 K, 3433.9 kPa | 808.429 ± 0.81
288.15 K, 5023.9 kPa | 809.62 ± 0.81
288.15 K, 6893.9 kPa | 810.983 ± 0.81
288.15 K, 8406.4 kPa | 812.175 ± 0.81
288.15 K, 12498 kPa | 814.345 ± 0.82
288.15 K, 13061 kPa | 815.035 ± 0.82
288.15 K, 15159 kPa | 815.414 ± 0.82
288.15 K, 16159 kPa | 816.818 ± 0.82
288.15 K, 17078 kPa | 817.715 ± 0.83
288.15 K, 19062 kPa | 818.283 ± 0.83
288.15 K, 20120 kPa | 819.399 ± 0.83
288.15 K, 21983 kPa | 820.3 ± 0.83
288.15 K, 22948 kPa | 821.319 ± 0.84
288.15 K, 24955 kPa | 821.837 ± 0.84
288.15 K, 31002 kPa | 825.774 ± 0.85
288.15 K, 36056 kPa | 828.477 ± 0.86
288.15 K, 38602 kPa | 829.859 ± 0.86
288.15 K, 40698 kPa | 831.363 ± 0.87
288.15 K, 42984 kPa | 832.313 ± 0.87
288.15 K, 44991 kPa | 833.694 ± 0.88
288.15 K, 46862 kPa | 834.848 ± 0.88
288.15 K, 49740 kPa | 835.692 ± 0.89
288.15 K, 53748 kPa | 837.321 ± 0.9
288.15 K, 55203 kPa | 839.369 ± 0.9
288.15 K, 60810 kPa | 841.135 ± 0.91
288.15 K, 65611 kPa | 844.144 ± 0.92
288.16 K, 549.3 kPa | 806.494 ± 0.81
288.16 K, 9959.1 kPa | 813.184 ± 0.82
288.16 K, 27092 kPa | 823.174 ± 0.84
288.16 K, 29078 kPa | 824.509 ± 0.85
288.16 K, 33729 kPa | 826.936 ± 0.85
288.16 K, 57016 kPa | 840.129 ± 0.9
288.16 K, 62338 kPa | 843.086 ± 0.91
293.15 K, 63.4 kPa | 802.054 ± 0.81
293.15 K, 194.5 kPa | 802.316 ± 0.81
293.15 K, 662.6 kPa | 802.599 ± 0.81
293.15 K, 5367.8 kPa | 806.019 ± 0.81
293.15 K, 5979.3 kPa | 806.327 ± 0.81
293.15 K, 8031.4 kPa | 807.842 ± 0.81
293.15 K, 12279 kPa | 811.587 ± 0.82
293.15 K, 16110 kPa | 814.191 ± 0.83
293.15 K, 18001 kPa | 815.385 ± 0.83
293.15 K, 30253 kPa | 822.999 ± 0.85
293.15 K, 32967 kPa | 824.811 ± 0.85
293.15 K, 42984 kPa | 830.218 ± 0.87
293.15 K, 44913 kPa | 831.278 ± 0.88
293.15 K, 47933 kPa | 833.008 ± 0.88
293.15 K, 50078 kPa | 834.047 ± 0.89
293.16 K, 310.4 kPa | 802.406 ± 0.81
293.16 K, 463.5 kPa | 802.612 ± 0.81
293.16 K, 1059.7 kPa | 802.921 ± 0.81
293.16 K, 2037.1 kPa | 803.747 ± 0.81
293.16 K, 2922 kPa | 804.089 ± 0.81
293.16 K, 3431.5 kPa | 804.593 ± 0.81
293.16 K, 5298.8 kPa | 805.894 ± 0.81
293.16 K, 7111.4 kPa | 807.238 ± 0.81
293.16 K, 9968.5 kPa | 809.474 ± 0.82
293.16 K, 14057 kPa | 812.743 ± 0.82
293.16 K, 20853 kPa | 817.066 ± 0.83
293.16 K, 22118 kPa | 818.157 ± 0.83
293.16 K, 24057 kPa | 819.188 ± 0.84
293.16 K, 25922 kPa | 820.412 ± 0.84
293.16 K, 27187 kPa | 821.228 ± 0.84
293.16 K, 34602 kPa | 825.683 ± 0.86
293.16 K, 38051 kPa | 827.567 ± 0.86
293.16 K, 40103 kPa | 828.763 ± 0.87
293.16 K, 52135 kPa | 835.387 ± 0.89
293.16 K, 55036 kPa | 836.79 ± 0.9
293.16 K, 58004 kPa | 838.271 ± 0.91
293.16 K, 60107 kPa | 839.502 ± 0.91
293.16 K, 62061 kPa | 840.325 ± 0.91
293.16 K, 66037 kPa | 842.335 ± 0.92
298.15 K, 122.4 kPa | 798.281 ± 0.81
298.15 K, 162.6 kPa | 798.371 ± 0.81
298.15 K, 405.5 kPa | 798.562 ± 0.81
298.15 K, 632.8 kPa | 798.678 ± 0.81
298.15 K, 956.4 kPa | 798.832 ± 0.81
298.15 K, 6988.8 kPa | 803.491 ± 0.81
298.15 K, 14555 kPa | 809.311 ± 0.82
298.15 K, 18284 kPa | 812.068 ± 0.83
298.15 K, 20164 kPa | 813.104 ± 0.83
298.15 K, 22781 kPa | 814.894 ± 0.84
298.15 K, 25076 kPa | 816.275 ± 0.84
298.15 K, 27604 kPa | 817.904 ± 0.85
298.15 K, 30046 kPa | 819.519 ± 0.85
298.15 K, 32326 kPa | 821.055 ± 0.85
298.15 K, 33317 kPa | 821.248 ± 0.86
298.15 K, 44911 kPa | 827.946 ± 0.88
298.15 K, 60006 kPa | 836.063 ± 0.91
298.15 K, 62079 kPa | 837.121 ± 0.92
298.15 K, 65330 kPa | 838.566 ± 0.93
298.15 K, 66093 kPa | 839.052 ± 0.93
298.16 K, 1152.2 kPa | 799.011 ± 0.81
298.16 K, 2046.3 kPa | 799.798 ± 0.81
298.16 K, 3021.1 kPa | 800.42 ± 0.81
298.16 K, 5107.4 kPa | 801.927 ± 0.81
298.16 K, 9044.3 kPa | 804.777 ± 0.82
298.16 K, 9996.8 kPa | 805.681 ± 0.82
298.16 K, 11947 kPa | 807.14 ± 0.82
298.16 K, 33072 kPa | 821.357 ± 0.86
298.16 K, 34997 kPa | 822.338 ± 0.86
298.16 K, 37948 kPa | 823.936 ± 0.87
298.16 K, 39972 kPa | 825.207 ± 0.87
298.16 K, 41983 kPa | 826.345 ± 0.87
298.16 K, 48045 kPa | 829.528 ± 0.89
298.16 K, 49997 kPa | 830.783 ± 0.89
298.16 K, 52020 kPa | 832.399 ± 0.9
298.16 K, 54851 kPa | 833.381 ± 0.9
298.16 K, 57898 kPa | 835.245 ± 0.91
303.15 K, 50.6 kPa | 793.736 ± 0.81
303.15 K, 974.4 kPa | 794.496 ± 0.81
303.15 K, 1922.5 kPa | 795.367 ± 0.81
303.15 K, 9012.3 kPa | 801.25 ± 0.82
303.15 K, 10062 kPa | 802.346 ± 0.82
303.15 K, 14908 kPa | 805.823 ± 0.83
303.15 K, 18109 kPa | 808.133 ± 0.83
